Laboratory results: article PMC5442124 (Scientific Reports, 2017)

How the values were obtained:
[1] = system: aquatic life; parameters: method as in earlier work; details: Canadian Sediment Quality Guidelines for the protection of aquatic life; cited from earlier work
[2] = parameters: method as in PMID 14194764; details: after 6 days’ dietary exposure to DDT (1500 μg/g); cited from earlier work
[3] = Elimination of DDTs in T. tubifex after transfer to un-spiked sediment; type: in vivo; details: elimination experiment in un-spiked sediment
Method: (§1) Environmentally relevant concentration exposure was conducted according to Organization for Economic Cooperation and Development (OECD section 305 and 315) test guidelinesn, [52]. Tubifex tubifex (Oligochaeta, Tubificidae) was chosen as prey, which could accumulate DDTs from sediment and transfer them to carp (Cyprinus carpio). T. tubifex is one of the most widespread and ubiquitous groups, which was considered to be a good bio-indicator[53], [54]. Carp are omnivorous demersal fish in fresh water ecosystems, which can serve as bio-indicators of environmental contaminants and play significant roles in assessing potential risk[44]. Adult T. tubifex and carp (2.0 ± 0.2 g, about 5 cm in length, ignore the gender) were obtained from Guan Yuan market (Beijing, China) and acclimatized in the laboratory for 2 weeks. T. tubifex (80 g) and ten fish were added into the sediment-water system for the exposure experiment. Twenty-seven glass aquariums with spiked sediment were cultivated at 14 h/10 h photoperiods and at 20 ± 2 °C for 28 days (nine aquariums were used to analyze the individual fish and T. tubifex worms, eighteen aquariums were used to analyze the tissue distribution and toxic effects). The overlying water was gently aerated and unchanged. Overlying water, fish (one from each aquariums), worms (about 1 g) and sediment were sampled on the 1st, 3ed, 5th, 9th, 14th, 21st, and 28th day. At the end of bioaccumulation experiments, all the fish and worms were transferred to un-spiked sediment for elimination experiments, respectively. Overlying water, fish (one from each aquariums), worms (about 1 g) and sediment were sampled on the 1st, 3ed, 5th, 7th, and 10th day. […] Fish were euthanized with an ice/water mixture.
(§2) The different tissues/organs of carp were extracted with different methods. Details of the extraction process please refer to the Supplementary Material. The lipid content of animals was measured according to Bligh and Dyer[55]. […] Details please refer to the Supplemental Material.

[4] = Elimination of DDTs from carp and carp tissues/organs after transfer to un-spiked sediment; type: in vivo, Cyprinus carpio; details: for percentage eliminated from brain: carp brain; for percentage eliminated from brain / percentage eliminated from kidney: end of experiments; for elimination percentage from gallbladder: carp gallbladder; for elimination percentage in heart: carp heart; for percentage eliminated from kidney: carp kidney
Method: as §1, §2

[5] = Bioaccumulation of DDTs in carp and carp tissues/organs in DDT spiked-sediment microcosm (food web); type: in vivo, Cyprinus carpio; details: treatment group; for concentration at 28 days / concentration at 9 day: Cyprinus carpio (carp), other: spiked sediment-water system with T. tubifex as prey; for concentration at 28 days: brain, end of the experiments; for concentration at 9 day: whole fish (wet weight), whole carp, read-out: concentration in carp at steady state; for maximum concentration in gastrointestinal tract: first 5 days
Method: (§3) The sediment was prepared in a glass aquarium with 3.6 kg soil (collected from China Agricultural University, and the physicochemical properties of the soil were as follows: clay, 34.8 ± 0.1%; silt, 10.0 ± 2.8%; sand, 55.2 ± 2.8%; organic matter, 24.4 ± 0.8 g/kg; and pH, 7.74 ± 0.05.) and 16 L de-chlorinated tap water, and incubated for seven days. The overlying water was discarded, and 400 g sediment (dry weight) was spiked with o,p’-DDT (50 ng/μL, 1600 μL) and p,p’-DDT (50 ng/μL, 1600 μL) in acetone. After the solvent was volatilized, the sediment was blended with the 3.6 kg sediment (dry weight) thoroughly. Dechlorinated tap water was added, and system was allowed to equilibrate for 48 h.
as §1, with “Tubifex tubifex (Oligochaeta, Tubificidae) was chosen as prey, which could accumulate DDTs from sediment and transfer them to carp (Cyprinus carpio).” left out
as §2

[6] = Bioaccumulation of DDTs in T. tubifex in DDT spiked-sediment microcosm; type: in vivo; details: for maximum concentration in T. tubifex / concentration at 28 day: treatment group; for maximum concentration in T. tubifex: fifth day; for concentration at 28 day: Tubifex tubifex, whole worm (wet weight), other: exposure in spiked sediment-water system, day 28
Method: as §3, §1
The control treatments (twenty-seven glass aquariums: nine aquariums were used to analyze the individual fish and T. tubifex worms, eighteen aquariums were used to analyze the tissue distribution and toxic effects) were composed of worms, fish and un-spiked sediment. The cultivation, sample time and dissection procedures were the same to the exposure experiments.
as §2

[7] = rainbow trout exposed in water; cited from earlier work

SMILES | elimination efficiency in T. tubifex [3] | percentage eliminated from brain [4] | elimination percentage from gallbladder [4] | elimination percentage in heart [4] | percentage eliminated from kidney [4] | concentration at 28 days ([5]; carp) | maximum concentration in T. tubifex [6] | concentration in brain (maximum) ([5]; carp, 9th day) | also measured
Clc1ccc(C(c2ccc(Cl)cc2)C(Cl)(Cl)Cl)cc1 [DDT, Dichlorodiphenyltrichloroethane] |  |  |  |  |  |  |  |  | effects range-low (ERL) value in sediments [1]: 1 ng/g; ratio DDT:DDD:DDE detected in the livers of rats [2]: approximately 3
Clc1ccc(C(c2ccccc2Cl)C(Cl)Cl)cc1 (centres unmarked) [o,p’-DDD] | 49.0% | 65.5% | 66.9% | 72.5% | 65.4% | 45.7 ± 0.3 ng/g |  |  | maximum concentration in kidney ([5]; carp, 28th day): 73.5 ± 1.9 ng/gwwt
ClC(Cl)=C(c1ccc(Cl)cc1)c1ccccc1Cl [o,p’-DDE] | 39.5% | 55.0% | 24.1% |  | 47.5% |  | 2.1 ± 0.2 ng/gwwt | 3.1 ± 0.1 ng/gwwt | 
Clc1ccc(C(c2ccccc2Cl)C(Cl)(Cl)Cl)cc1 (centres unmarked) [o,p’-DDT] | 65.7% |  |  | 51.9% |  |  | 74.6 ± 1.8 ng/gwwt | 40.3 ± 1.8 ng/gwwt | concentration at 28 day [6]: 5.6 ± 0.1 ng/g; concentration at 9 day ([5]; 9th day): 39.1 ± 0.3 ng/g; maximum concentration in kidney ([5]; carp, 9th day): 96.2 ± 2.0 ng/gwwt; maximum concentration in gastrointestinal tract ([5]; carp): 40.9 ± 0.9 ng/gwwt
Clc1ccc(C(c2ccc(Cl)cc2)C(Cl)Cl)cc1 [p,p’-DDD] | 58.2% | 61.4% | 64.1% | 69.6% | 63.9% | 68.4 ± 0.6 ng/g |  |  | maximum concentration in kidney ([5]; carp, 28th day): 89.9 ± 3.7 ng/gwwt
ClC(Cl)=C(c1ccc(Cl)cc1)c1ccc(Cl)cc1 [p,p’-DDE] | 25.7% | 52.8% | 50.8% | 59.9% | 48.7% | 41.6 ± 0.5 ng/g | 21.7 ± 0.8 ng/gwwt |  | maximum concentration in T. tubifex, control group ([6]; control group (un-spiked sediment), 14th day): 28.2 ± 1.1 ng/gwwt; highest concentration in kidney ([5]; carp, 21st day): 46.9 ± 0.6 ng/gwwt; maximum concentration in muscle ([5]; carp, 21st day): 11.7 ± 2.6 ng/gwwt
Clc1ccc(C(c2ccc(Cl)cc2)C(Cl)(Cl)Cl)cc1 [p,p’-DDT] | 73.6% |  |  |  |  |  | 165.5 ± 2.7 ng/gwwt | 49.1 ± 1.0 ng/gwwt | concentration at 28 day [6]: 18.4 ± 2.2 ng/g; concentration at 9 day ([5]; 9th day): 57.3 ± 3.1 ng/g; maximum concentration in kidney ([5]; carp, 9th day): 124.0 ± 2.6 ng/gwwt; maximum concentration in gastrointestinal tract ([5]; carp): 43.2 ± 0.5 ng/gwwt
Oc1c(Cl)c(Cl)c(Cl)c(Cl)c1Cl [pentachlorophenol] |  |  |  |  |  |  |  |  | dose eliminated in feces and bile [7]: 30%; dose eliminated in urine [7]: 20%; dose eliminated through the gills [7]: 50%
